From patent US9617259B2, “Histone deacetylase inhibitors and compositions and methods of use thereof” (CHDI Foundation, Inc., priority 2013, dated 2017)

Legend:
[1] = target: human catalytic domain HDAC4 protein (amino acids 648-1032) (Homo sapiens (Human), UniProt P56524); assay: Inhibition of HDAC4 catalytic domain enzymatic activity, fluorogenic substrate Boc-Lys(Tfa)-AMC; conditions: read-out: Biochemical HDAC-4 IC50
Text: Analysis of Inhibition of HDAC4 with Class IIa Histone Deacetylase (HDAC) Inhibitors
The potency of Class IIa Histone Deacetylase (HDAC) inhibitors is quantified by measuring the Histone Deacetylase 4 (HDAC4) catalytic domain enzymatic activity using the fluorogenic substrate, Boc-Lys(Tfa)-AMC. The substrate is deacetylated to Boc-Lys-AMC by HDAC4. Cleavage by trypsin results in the release of the fluorophore AMC from the deacetylated substrate. The fluorescence of the sample is directly related to the histone deacetylase activity in the sample.
Serial dilutions of the HDAC inhibitors and control reference compound (1-(5-(3-((4-(1,3,4-oxadiazol-2-yl)phenoxy)methyl)-1,2,4-oxadiazol-5-yl)thiophen-2-yl)-2,2,2-trifluoroethanone) are made by first resuspending the lyophilized compound to a final concentration of 10 mM in 100% dimethyl sulfoxide (DMSO). Stocks of 60 μl aliquots of the 10 mM compound in DMSO are prepared and stored at −20° C. From one stock aliquot of each compound to be tested and the reference compound, a 16-point serial dilution is prepared according to
2 μl (200×) of each diluted solution and each control (full activity: 100% DMSO alone or full inhibition 1 mM) is stamped into V-bottomed polypropylene 384-well compound plates using either the Bravo (384-well head from Agilent) or 12.5 μl 16-channel Matrix multi-channel pipette (Matrix Technologies Ltd).
A working solution of enzyme is prepared from a 500 μg/ml stock aliquot of HDAC4 catalytic domain (thawed on ice) diluted to 0.2 μg/ml with assay buffer (50 mM Tris-HCl, 137 mM NaCl, 2.7 mM KCl, and 1 mM MgCl2 at pH 8 and equilibrated to room temperature) just prior to the addition of the enzyme to the assay.
5× (50 μM) substrate is prepared just prior to the addition to the assay. A 1 mM substrate stock is made by diluting a 100 mM Boc-Lys(Tfa)-AMC in DMSO solution 1:100 by adding it drop-wise to assay buffer (equilibrated to room temperature) while vortexing at slow speed to prevent precipitation. The 5× substrate is prepared by diluting the 1 mM substrate solution 1:20 by adding it drop-wise to assay buffer (equilibrated to room temperature) while vortexing at slow speed to prevent precipitation.
3× (30 μM) Developer/Stop Solution is prepared just prior to addition to the plate by diluting a stock solution of 10 mM reference compound 1:333 in 25 mg/ml trypsin (PAA Laboratories Ltd.) equilibrated to room temperature.
5 μl of each solution of 1:20 diluted compound from above is transferred to a clear bottomed, black, 384-well assay plate using the Bravo or the Janus (384-well MDT head from Perkin Elmer). Using a 16-channel Matrix multi-channel pipette, 35 μl of the working solution of HDAC4 catalytic domain enzyme (0.2 μg/ml in assay buffer) is transferred to the assay plate. The assay is then started by adding 10 μl of 5× (50 μM) substrate to the assay plates using either the Bravo, Janus or 16-channel Matrix multi-channel pipette. The assay plate is then shaken for two minutes on an orbital shaker at 900 rpm (rotations per minute). Next the plate is incubated for 15 minutes at 37° C. The reaction is stopped by adding 25 al of 3× (30 μM) developer/stop solution to the assay plates using either the Bravo, Janus or a 16-channel Matrix multi-channel pipette. Assay plates are then shaken for 5 minutes on an orbital shaker at 1200 rpm. Next, the assay plates are incubated at 37° C. for 1 hour in a tissue culture incubator. Finally, the fluorescence is measured (Excitation: 355 nm, Emission: 460 nm) using PerkinElmer EnVision in top read mode.

[2] = tested on: Jurkat E6-1 cells; assay: Inhibition of cellular HDAC activity in Jurkat E6-1 cells, fluorogenic substrate Boc-Lys(Tfa)-AMC; assay type: cell-based; conditions: read-out: Cell IC50
Text: Analysis of Inhibition of Cellular HDAC Activity with Class IIa Histone Deacetylase (HDAC) Inhibitors
The potency of Class IIa Histone Deacetylase (HDAC) inhibitors is quantified by measuring the cellular histone deacetylase enzymatic activity using the fluorogenic substrate, Boc-Lys(Tfa)-AMC. After penetration in Jurkat E6-1 cells, the substrate is deacetylated to Boc-Lys-AMC. After cell lysis and cleavage by trypsin, the fluorophore AMC is released from the deacetylated substrate only. The fluorescence of the sample is directly related to the histone deacetylase activity in the sample.
Jurkat E6.1 cells are cultured according to standard cell culture protocols in Jurkat E6.1 Growth Media (RPMI without phenol red, 10% FBS, 10 mM HEPES, and 1 mM Sodium Pyruvate). Jurkat E6.1 cells are counted using a Coulter Counter and resuspended in Jurkat E6.1 growth media at a concentration of 75,000 cells/35 μl. 35 μl or 75,000 cells is seeded into Greiner microtitre assay plates. The plates are then incubated at 37° C. and 5% CO2 while other assay components are being prepared. […]
5 μl of each solution of 1:20 diluted compound from above is transferred to the Greiner microtitre assay plates with 75,000 cells/well using the Bravo. […] Finally the top read fluorescence (Excitation: 355 nm, Emission: 460 nm) is measured using PerkinElmer EnVision.

human catalytic domain HDAC4 protein (amino acids 648-1032), sequence (P56524 648-1032): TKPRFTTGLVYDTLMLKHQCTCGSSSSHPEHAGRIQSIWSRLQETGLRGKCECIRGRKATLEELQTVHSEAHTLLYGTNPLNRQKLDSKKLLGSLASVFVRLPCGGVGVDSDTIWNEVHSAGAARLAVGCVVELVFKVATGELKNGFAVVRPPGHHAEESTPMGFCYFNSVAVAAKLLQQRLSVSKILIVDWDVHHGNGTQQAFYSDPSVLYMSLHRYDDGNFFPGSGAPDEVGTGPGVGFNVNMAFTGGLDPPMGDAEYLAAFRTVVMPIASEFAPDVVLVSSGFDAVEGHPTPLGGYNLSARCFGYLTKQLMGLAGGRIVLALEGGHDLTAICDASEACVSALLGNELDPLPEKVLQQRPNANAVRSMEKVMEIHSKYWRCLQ

IC50 [1] [nM] | IC50 [2] [nM] | SMILES
26800 | > 50000 | Cc1ncc(C2=C[C@@](C(=O)NO)(c3cccc(F)c3C)CC2)cn1 [Example 9, (R)-1-(3-fluoro-2-methylphenyl)-N-hydroxy-3-(2-methylpyrimidin-5-yl)cyclopent-2-enecarboxamide]
 | 380 | Cc1ncc(C2=C[C@](C(=O)NO)(c3cccc(F)c3C)CC2)cn1 [Example 10, (S)-1-(3-fluoro-2-methylphenyl)-N-hydroxy-3-(2-methylpyrimidin-5-yl)cyclopent-2-enecarboxamide]
340 |  | O=C(NO)[C@]1(c2ccccc2)C=C(c2cncc(F)c2)CC1 [Example 35, (S)-3-(5-fluoropyridin-3-yl)-N-hydroxy-1-phenylcyclopent-2-enecarboxamide]
20 |  | Cc1ncc(Cl)cc1C1=C[C@](C(=O)NO)(c2cccc(F)c2C)CC1 [Example 36, (S)-3-(5-chloro-2-methylpyridin-3-yl)-1-(3-fluoro-2-methylphenyl)-N-hydroxycyclopent-2-enecarboxamide]
10 |  | Cc1ncccc1C1=C[C@](C(=O)NO)(c2cccc(F)c2C)CC1 [Example 37, (S)-1-(3-fluoro-2-methylphenyl)-N-hydroxy-3-(2-methylpyridin-3-yl)cyclopent-2-enecarboxamide]
10 |  | Cc1c(F)cccc1[C@@]1(C(=O)NO)C=C(c2ccc3cnn(C)c3c2)CC1 [Example 38, (S)-1-(3-fluoro-2-methylphenyl)-N-hydroxy-3-(1-methyl-1H-indazol-6-yl)cyclopent-2-enecarboxamide]
30 |  | Cc1c(F)cccc1[C@@]1(C(=O)NO)C=C(c2ccc3cnn(C(F)F)c3c2)CC1 [Example 39, (S)-3-(1-(difluoromethyl)-1H-indazol-6-yl)-1-(3-fluoro-2-methylphenyl)-N-hydroxycyclopent-2-enecarboxamide]
10 |  | Cc1c(F)cccc1[C@@]1(C(=O)NO)C=C(c2ccc3scnc3c2)CC1 [Example 40, (S)-3-(benzo[d]thiazol-5-yl)-1-(3-fluoro-2-methylphenyl)-N-hydroxycyclopent-2-enecarboxamide]
20 |  | Cc1c(F)cccc1[C@@]1(C(=O)NO)C=C(c2cc3ccccc3s2)CC1 [Example 41, (S)-3-(benzo[b]thiophen-2-yl)-1-(3-fluoro-2-methylphenyl)-N-hydroxycyclopent-2-enecarboxamide]
10 |  | Cc1c([C@@]2(C(=O)NO)C=C(c3ccc4cnn(C)c4c3)CC2)ccc(F)c1F [Example 42, (S)-1-(3,4-difluoro-2-methylphenyl)-N-hydroxy-3-(1-methyl-1H-indazol-6-yl)cyclopent-2-enecarboxamide]
3600 |  | O=C(NO)C1(c2ccccc2)CC=C(c2cncc(F)c2)CC1 (centres unmarked) [Example 43, 4-(5-fluoropyridin-3-yl)-N-hydroxy-1,2,3,6-tetrahydro-[1,1′-biphenyl]-1-carboxamide]
490 |  | Cc1c(F)cccc1C1(C(=O)NO)CC=C(c2cncc(F)c2)CC1 (centres unmarked) [Example 44, 3′-fluoro-4-(5-fluoropyridin-3-yl)-N-hydroxy-2′-methyl-1,2,3,6-tetrahydro-[1,1′-biphenyl]-1-carboxamide]
550 |  | Cc1c(F)cccc1C1(C(=O)NO)CC=C(c2ccc3nccnc3c2)CC1 (centres unmarked) [Example 45, 3′-fluoro-N-hydroxy-2′-methyl-4-(quinoxalin-6-yl)-1,2,3,6-tetrahydro-[1,1′-biphenyl]-1-carboxamide]
